# Measurements reported in ChEMBL document CHEMBL5291721, “A preclinical secondary pharmacology resource illuminates target-adverse drug reaction associations of marketed drugs” (Nat Commun, 2023).
# Columns and labels:
# [1] = biological target: Cannabinoid receptor 1 (Homo sapiens, UniProt P21554); format: functional
# [2] = biological target: T1, Muscarinic acetylcholine receptor M5 (Homo sapiens, UniProt P08912)
# T1 sequence (P08912 whole entry): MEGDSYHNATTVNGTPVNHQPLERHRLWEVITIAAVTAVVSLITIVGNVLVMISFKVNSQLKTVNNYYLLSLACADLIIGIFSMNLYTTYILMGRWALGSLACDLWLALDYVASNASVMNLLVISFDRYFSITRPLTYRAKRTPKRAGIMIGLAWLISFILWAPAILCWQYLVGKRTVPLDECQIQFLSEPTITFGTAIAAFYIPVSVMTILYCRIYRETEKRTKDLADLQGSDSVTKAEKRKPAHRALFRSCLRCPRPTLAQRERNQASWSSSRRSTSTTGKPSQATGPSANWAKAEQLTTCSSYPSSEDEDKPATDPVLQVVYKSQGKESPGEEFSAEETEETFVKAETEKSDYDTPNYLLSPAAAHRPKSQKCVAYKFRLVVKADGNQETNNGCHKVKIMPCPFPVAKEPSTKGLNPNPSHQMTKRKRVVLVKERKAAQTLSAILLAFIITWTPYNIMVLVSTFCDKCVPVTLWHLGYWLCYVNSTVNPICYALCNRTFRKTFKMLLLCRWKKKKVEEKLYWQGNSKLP
# [3] = biological target: T2, Androgen receptor (Homo sapiens, UniProt P10275)
# T2 sequence (P10275 whole entry): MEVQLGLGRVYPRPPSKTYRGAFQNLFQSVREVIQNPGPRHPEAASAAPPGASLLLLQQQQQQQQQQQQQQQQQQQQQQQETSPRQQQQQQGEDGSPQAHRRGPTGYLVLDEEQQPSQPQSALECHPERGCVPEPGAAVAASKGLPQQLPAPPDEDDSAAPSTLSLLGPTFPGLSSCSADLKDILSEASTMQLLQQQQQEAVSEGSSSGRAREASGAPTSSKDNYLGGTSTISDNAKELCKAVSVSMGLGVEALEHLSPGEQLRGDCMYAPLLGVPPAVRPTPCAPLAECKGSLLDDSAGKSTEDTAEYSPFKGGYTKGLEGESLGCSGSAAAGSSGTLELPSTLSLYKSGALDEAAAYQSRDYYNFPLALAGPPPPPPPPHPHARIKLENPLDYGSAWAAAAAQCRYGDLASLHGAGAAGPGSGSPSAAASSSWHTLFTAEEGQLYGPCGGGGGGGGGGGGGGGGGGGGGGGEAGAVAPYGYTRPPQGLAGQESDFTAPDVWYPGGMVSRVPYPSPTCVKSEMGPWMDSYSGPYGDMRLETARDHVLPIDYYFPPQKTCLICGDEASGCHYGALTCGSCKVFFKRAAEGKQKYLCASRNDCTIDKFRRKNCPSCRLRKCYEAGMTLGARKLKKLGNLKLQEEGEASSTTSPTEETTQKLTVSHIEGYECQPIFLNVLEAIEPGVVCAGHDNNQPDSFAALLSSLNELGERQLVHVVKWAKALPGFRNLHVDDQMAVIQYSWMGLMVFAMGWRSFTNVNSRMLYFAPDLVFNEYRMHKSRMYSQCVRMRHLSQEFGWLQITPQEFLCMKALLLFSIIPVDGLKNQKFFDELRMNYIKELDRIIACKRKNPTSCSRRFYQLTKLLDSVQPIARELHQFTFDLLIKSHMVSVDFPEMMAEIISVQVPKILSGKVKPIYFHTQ
# [4] = biological target: T3, Thromboxane A2 receptor (Homo sapiens, UniProt P21731); format: functional
# T3 sequence (P21731 whole entry): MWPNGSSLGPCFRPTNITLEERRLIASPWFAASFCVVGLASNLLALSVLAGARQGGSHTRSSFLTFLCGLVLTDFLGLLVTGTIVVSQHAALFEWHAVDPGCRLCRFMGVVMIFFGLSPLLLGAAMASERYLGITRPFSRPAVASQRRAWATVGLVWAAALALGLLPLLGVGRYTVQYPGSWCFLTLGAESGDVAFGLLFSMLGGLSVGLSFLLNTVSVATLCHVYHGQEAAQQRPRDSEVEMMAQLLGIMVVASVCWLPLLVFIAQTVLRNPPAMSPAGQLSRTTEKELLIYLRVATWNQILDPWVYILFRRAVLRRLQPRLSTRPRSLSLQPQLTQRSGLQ
# [5] = biological target: T3, Thromboxane A2 receptor; format: functional, cell-based
# [6] = biological target: T4, Estrogen receptor (Homo sapiens, UniProt P03372); format: functional
# T4 sequence (P03372 whole entry): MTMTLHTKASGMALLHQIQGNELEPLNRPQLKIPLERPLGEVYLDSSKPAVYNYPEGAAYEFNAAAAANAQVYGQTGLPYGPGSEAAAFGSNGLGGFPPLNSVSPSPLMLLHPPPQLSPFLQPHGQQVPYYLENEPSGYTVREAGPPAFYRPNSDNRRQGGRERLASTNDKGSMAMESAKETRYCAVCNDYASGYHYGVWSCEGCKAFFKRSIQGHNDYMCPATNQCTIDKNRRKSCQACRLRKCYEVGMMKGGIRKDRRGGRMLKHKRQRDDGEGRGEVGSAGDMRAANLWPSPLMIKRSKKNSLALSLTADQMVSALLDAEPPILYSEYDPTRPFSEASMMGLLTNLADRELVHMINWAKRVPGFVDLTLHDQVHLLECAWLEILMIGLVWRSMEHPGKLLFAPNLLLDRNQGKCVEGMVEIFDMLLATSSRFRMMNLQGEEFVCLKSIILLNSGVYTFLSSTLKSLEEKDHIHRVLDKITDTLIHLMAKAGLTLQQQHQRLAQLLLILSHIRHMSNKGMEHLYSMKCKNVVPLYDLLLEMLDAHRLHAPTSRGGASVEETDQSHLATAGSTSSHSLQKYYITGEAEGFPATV
# [7] = biological target: 5-hydroxytryptamine receptor 2A (Homo sapiens, UniProt P28223)
# [8] = biological target: T5, Adenosine receptor A1 (Homo sapiens, UniProt P30542)
# T5 sequence (P30542 whole entry): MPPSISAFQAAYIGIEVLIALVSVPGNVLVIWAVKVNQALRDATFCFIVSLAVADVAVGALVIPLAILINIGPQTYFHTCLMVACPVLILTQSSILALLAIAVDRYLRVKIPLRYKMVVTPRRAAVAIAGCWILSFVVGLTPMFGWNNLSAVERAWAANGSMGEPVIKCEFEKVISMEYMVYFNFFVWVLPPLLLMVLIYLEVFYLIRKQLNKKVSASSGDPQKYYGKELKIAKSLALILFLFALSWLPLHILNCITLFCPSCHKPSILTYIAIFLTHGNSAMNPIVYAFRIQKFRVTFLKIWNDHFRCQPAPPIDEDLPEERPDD
# [9] = biological target: Hydroxycarboxylic acid receptor 2 (Homo sapiens, UniProt Q8TDS4)
# Also: assay procedure not described here.
# Sequence of Cannabinoid receptor 1 (P21554 whole entry): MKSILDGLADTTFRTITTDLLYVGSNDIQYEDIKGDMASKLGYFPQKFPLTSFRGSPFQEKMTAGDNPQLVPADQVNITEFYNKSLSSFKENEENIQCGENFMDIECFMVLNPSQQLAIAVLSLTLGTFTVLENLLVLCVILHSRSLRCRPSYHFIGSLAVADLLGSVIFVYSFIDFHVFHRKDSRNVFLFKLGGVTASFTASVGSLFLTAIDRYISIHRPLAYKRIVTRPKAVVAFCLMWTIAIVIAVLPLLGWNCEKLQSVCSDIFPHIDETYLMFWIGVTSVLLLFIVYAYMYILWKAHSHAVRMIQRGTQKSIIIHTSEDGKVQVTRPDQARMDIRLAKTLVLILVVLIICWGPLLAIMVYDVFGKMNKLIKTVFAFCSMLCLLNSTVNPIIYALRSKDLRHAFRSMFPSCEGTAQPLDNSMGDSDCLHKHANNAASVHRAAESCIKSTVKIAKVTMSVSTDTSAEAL
# Sequence of 5-hydroxytryptamine receptor 2A (P28223 whole entry): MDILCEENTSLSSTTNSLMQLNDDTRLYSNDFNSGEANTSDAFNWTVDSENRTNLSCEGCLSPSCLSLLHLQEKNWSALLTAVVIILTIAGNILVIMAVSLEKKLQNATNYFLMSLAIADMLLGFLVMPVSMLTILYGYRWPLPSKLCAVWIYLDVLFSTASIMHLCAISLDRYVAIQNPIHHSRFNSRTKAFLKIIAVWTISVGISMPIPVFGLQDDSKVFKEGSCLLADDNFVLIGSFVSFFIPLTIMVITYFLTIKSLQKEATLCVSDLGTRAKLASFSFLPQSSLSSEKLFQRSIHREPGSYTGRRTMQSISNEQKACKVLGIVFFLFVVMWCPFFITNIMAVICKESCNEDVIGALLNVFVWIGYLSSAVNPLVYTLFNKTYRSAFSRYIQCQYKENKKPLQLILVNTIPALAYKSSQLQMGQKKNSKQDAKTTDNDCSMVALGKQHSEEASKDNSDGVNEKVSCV
# Sequence of Hydroxycarboxylic acid receptor 2 (Q8TDS4 whole entry): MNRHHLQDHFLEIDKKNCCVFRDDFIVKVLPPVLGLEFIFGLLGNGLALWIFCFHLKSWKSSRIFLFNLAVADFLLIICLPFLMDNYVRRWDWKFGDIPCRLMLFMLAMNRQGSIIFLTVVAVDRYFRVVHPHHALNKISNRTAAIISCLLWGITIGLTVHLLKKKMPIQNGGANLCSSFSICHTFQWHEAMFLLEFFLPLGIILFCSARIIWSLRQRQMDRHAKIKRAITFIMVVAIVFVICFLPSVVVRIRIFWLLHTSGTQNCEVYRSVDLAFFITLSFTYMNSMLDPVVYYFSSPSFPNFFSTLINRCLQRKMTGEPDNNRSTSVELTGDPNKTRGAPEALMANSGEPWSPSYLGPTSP
compound,measurement,setting,value
CCOC(=O)[C@H](CCc1ccccc1)N[C@@H](C)C(=O)N1CCC[C@H]1C(=O)O,AC50,[1],> 10 µM
same,AC50,[2],> 10 µM
Nc1nc(N)c2nc(-c3ccccc3)c(N)nc2n1,AC50,[3],> 30 µM
same,AC50,[1],> 10 µM
same,AC50,[4],> 30 µM
same,AC50,[5],> 30 µM
same,AC50,[2],> 10 µM
C[C@H]1O[C@H](O[C@H]2[C@H](O)[C@@H](O)[C@@H](O[C@H]3[C@H](O)[C@@H](O)C(O)O[C@@H]3CO)O[C@@H]2CO)[C@H](O)[C@@H](O)[C@@H]1N[C@H]1C=C(CO)[C@@H](O)[C@H](O)[C@H]1O (stereo not given in full) [ACARBOSE],AC50,[1],> 10 µM
same,AC50,[2],> 10 µM
CC(=O)c1ccc2c(c1)N(CCCN1CCN(CCO)CC1)c1ccccc1S2 [ACETOPHENAZINE],AC50,[6],> 30 µM
CC(N)Cc1ccccc1 (stereo not given) [AMPHETAMINE],AC50,[7],> 10 µM
same,AC50,[6],> 30 µM
CN1CCCC(n2nc(Cc3ccc(Cl)cc3)c3ccccc3c2=O)CC1 (stereo not given) [AZELASTINE],AC50,[6],> 30 µM
O=C1c2c(O)c(=O)ccn2N([C@@H]2c3ccccc3SCc3c2ccc(F)c3F)[C@@H]2COCCN12 [BALOXAVIR],AC50,[3],> 30 µM
C(=N\NC1=NCCN1)/c1c2ccccc2c(/C=N/NC2=NCCN2)c2ccccc12 [BISANTRENE],AC50,[3],> 30 µM
CC(C)NCC(O)COc1ccc(COCCOC(C)C)cc1 (stereo not given) [BISOPROLOL],AC50,[7],> 10 µM
COc1cc(Nc2c(C#N)cnc3cc(OCCCN4CCN(C)CC4)c(OC)cc23)c(Cl)cc1Cl [BOSUTINIB],AC50,[1],> 10 µM
same,AC50,[8],> 30 µM
same,AC50,[2],12.1 µM
CCO/N=C(\C(=O)N[C@@H]1C(=O)N2C(C(=O)[O-])=C(Sc3nc(-c4cc[n+](C)cc4)cs3)CS[C@H]12)c1nsc(N)n1 [CEFTAROLINE],AC50,[3],> 30 µM
CCC[C@@H]1C[C@@H](C(=O)N[C@@H]([C@H]2O[C@H](SC)[C@H](O)[C@@H](O)[C@H]2O)[C@H](C)Cl)N(C)C1 [CLINDAMYCIN],AC50,[9],> 10 µM
CC(=O)OCC(=O)[C@@]1(O)CC[C@H]2[C@@H]3CCC4=CC(=O)CC[C@]4(C)[C@H]3C(=O)C[C@@]21C [CORTISONE ACETATE],AC50,[8],> 30 µM
CN(CCOc1ccc(NS(C)(=O)=O)cc1)CCc1ccc(NS(C)(=O)=O)cc1 [DOFETILIDE],AC50,[7],> 10 µM
same,AC50,[9],> 10 µM
COc1cc2c(cc1OC)C(=O)C(CC1CCN(Cc3ccccc3)CC1)C2 (stereo not given) [DONEPEZIL],AC50,[7],> 10 µM
same,AC50,[3],> 30 µM
same,AC50,[1],> 10 µM
same,AC50,[2],15.4 µM
COC(=O)[C@@H]1CC2=CC(=O)CC[C@]2(C)[C@@]23O[C@@H]2C[C@@]2(C)[C@@H](CC[C@@]24CCC(=O)O4)[C@H]13 [EPLERENONE],AC50,[7],> 10 µM
same,AC50,[6],> 30 µM
CCC(=O)O[C@H]1[C@H](O[C@@H]2[C@@H](C)[C@H](O[C@H]3C[C@@](C)(OC)[C@@H](O)[C@H](C)O3)[C@@H](C)C(=O)O[C@H](CC)[C@@](C)(O)[C@H](O)[C@@H](C)C(=O)[C@H](C)C[C@@]2(C)O)O[C@H](C)C[C@@H]1N(C)C [ERYTHROMYCIN PROPIONATE],AC50,[8],> 30 µM
C#C[C@]1(O)CC[C@H]2[C@@H]3CCc4cc(O)ccc4[C@H]3CC[C@@]21C [ETHINYL ESTRADIOL],AC50,[9],> 10 µM
same,AC50,[8],> 30 µM
NC(N)=Nc1nc(CSCCC(N)=NS(N)(=O)=O)cs1 [FAMOTIDINE],AC50,[1],> 10 µM
same,AC50,[2],> 10 µM
